How the values were obtained:
Assay type in all cases: in vivo
[1] = system: Beet Armyworm (Spodoptera exigua, LAPHEG); assay: Bioassay on Beet Armyworm (BAW), 128-well diet tray assay; settings: Species BAW (Beet Armyworm), read-out: BAW (Biological Results, rating)
In short: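 Second instar larvae were exposed to diet treated at 50 μg/cm^2 for five to seven days at 25° C.; mortality was averaged over eight wells.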

[2] = system: Cabbage Looper (Trichoplusia ni, TRIPNI); assay: Bioassay on Cabbage Looper (CL), 128-well diet tray assay; settings: Trichoplusia ni; Species CL (Cabbage Looper); read-out: CL (Biological Results, rating)
In short: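 Percent mortality, averaged across eight replicate wells, was scored after five to seven days at 25° C. under a 14:10 light-dark cycle. Each well held one to five second instar larvae on artificial diet treated at 50 μg/cm^2 with compound from 90:10 acetone-water, allowed to dry before infestation.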

[3] = system: Yellow Fever Mosquito (Aedes aegypti, AEDSAE); assay: Bioassay on Yellow Fever Mosquito (YFM), 96-well plate larval assay; settings: Species YFM (Yellow Fever Mosquito)
Description: Certain molecules disclosed in this document were tested against YFM using procedures described in the following paragraph. In the reporting of the results, the “GPA & YFM Rating Table” was used (See Table Section).
Master plates containing 400 μg of a molecule dissolved in 100 μL of dimethyl sulfoxide (DMSO) (equivalent to a 4000 ppm solution) are used. A master plate of assembled molecules contains 15 μL per well. To this plate, 135 μL of a 90:10 water/acetone mixture is added to each well. A robot is programmed to dispense 15 μL aspirations from the master plate into an empty 96-well shallow plate (“daughter” plate). There are 6 reps (“daughter” plates) created per master. The created “daughter” plates are then immediately infested with YFM larvae.
The day before plates are to be treated, mosquito eggs are placed in Millipore water containing liver powder to begin hatching (4 g. into 400 mL). After the “daughter” plates are created using the robot, they are infested with 220 μL of the liver powder/larval mosquito mixture (about 1 day-old larvae). After plates are infested with mosquito larvae, a non-evaporative lid is used to cover the plate to reduce drying. Plates are held at room temperature for 3 days prior to grading. After 3 days, each well is observed and scored based on mortality. The results are indicated in the table entitled “Table ABC: Biological Results” (See Table Section).

Row | SMILES | pest or weed control at 50 µg/cm2 [1] | pest or weed control at 50 µg/cm2 [2] | YFM (Biological Results, rating) [3]
1 | O=C(Nc1ccc(Cl)nc1)c1cc(NC(=O)[C@H]2[C@H](c3cc(Cl)cc(Cl)c3)C2(Cl)Cl)ccc1Cl (relative stereo) [F32, trans-2-Chloro-N-(6-chloropyridin-3-yl)-5-(2,2-dichloro-3-(3,5-dichlorophenyl)cyclopropane-1-carboxamido)benzamide] | 50 to 100% | 50 to 100% | A (80-100)
2 | O=C(Nc1ccc(F)cc1)c1cc(NC(=O)[C@H]2[C@H](c3cccc(C(F)(F)F)c3)C2(Cl)Cl)ccc1Cl (relative stereo) [F56, trans-2-Chloro-5-(2,2-dichloro-3-(3-(trifluoromethyl)phenyl)cyclopropane-1-carboxamido)-N-(4-fluorophenyl)benzamide] | 50 to 100% | 50 to 100% | B (More than 0-Less than 80)
3 | CN(C(=O)c1cc(NC(=O)[C@H]2[C@H](c3cccc(C(F)(F)F)c3)C2(Cl)Cl)ccc1Cl)c1ccc(F)cc1 (relative stereo) [F57, trans-2-Chloro-5-(2,2-dichloro-3-(3-(trifluoromethyl)phenyl)cyclopropane-1-carboxamido)-N-(4-fluorophenyl)-N-methylbenzamide] | 50 to 100% | 50 to 100% | B (More than 0-Less than 80)
4 | O=C(Nc1c(F)cccc1F)c1cc(NC(=O)[C@H]2[C@H](c3cccc(C(F)(F)F)c3)C2(Cl)Cl)ccc1Cl (relative stereo) [F58, trans-2-Chloro-5-(2,2-dichloro-3-(3-(trifluoromethyl)phenyl)cyclopropane-1-carboxamido)-N-(2,6-difluorophenyl)benzamide] | 50 to 100% | 50 to 100% | A (80-100)
5 | CN(C(=O)c1cc(NC(=O)[C@H]2[C@H](c3ccc(Cl)c(Cl)c3)C2(Cl)Cl)ccc1F)c1ccc(F)cc1 (relative stereo) [F59, trans-5-(2,2-Dichloro-3-(3,4-dichlorophenyl)cyclopropane-1-carboxamido)-2-fluoro-N-(4-fluorophenyl)-N-methylbenzamide] | 50 to 100% | 50 to 100% | A (80-100)
6 | O=C(Nc1ccc(F)cc1F)c1cc(NC(=O)[C@H]2[C@H](c3cc(Cl)cc(Cl)c3)C2(Cl)Cl)ccc1F (relative stereo) [F61, trans-5-(2,2-Dichloro-3-(3,5-dichlorophenyl)cyclopropane-1-carboxamido)-N-(2,4-difluorophenyl)-2-fluorobenzamide] | 50 to 100% | 50 to 100% | B (More than 0-Less than 80)
7 | O=C(Nc1ccc(F)cc1F)c1cc(NC(=O)[C@H]2[C@H](c3ccc(Cl)c(Cl)c3)C2(Cl)Cl)ccc1F (relative stereo) [F62, trans-5-(2,2-Dichloro-3-(3,4-dichlorophenyl)cyclopropane-1-carboxamido)-N-(2,4-difluorophenyl)-2-fluorobenzamide] | 50 to 100% | 50 to 100% | B (More than 0-Less than 80)
8 | CN(C(=O)c1cc(NC(=O)[C@H]2[C@H](c3cc(Cl)cc(Cl)c3)C2(Cl)Cl)ccc1F)c1ccc(F)cc1F (relative stereo) [F63, trans-5-(2,2-Dichloro-3-(3,5-dichlorophenyl)cyclopropane-1-carboxamido)-N-(2,4-difluorophenyl)-2-fluoro-N-methylbenzamide] | 50 to 100% | 50 to 100% | A (80-100)
9 | CN(C(=O)c1cc(NC(=O)[C@H]2[C@H](c3cc(Cl)c(Cl)c(Cl)c3)C2(Cl)Cl)ccc1F)c1ccc(F)cc1F (relative stereo) [F65, trans-5-(2,2-Dichloro-3-(3,4,5-trichlorophenyl)cyclopropane-1-carboxamido)-N-(2,4-difluorophenyl)-2-fluoro-N-methylbenzamide] | 50 to 100% | 50 to 100% | A (80-100)
10 | CN(C(=O)c1cc(NC(=O)[C@H]2[C@H](c3cc(Cl)cc(Cl)c3)C2(Cl)Cl)ccc1F)c1ccccc1 (relative stereo) [F66, trans-5-(2,2-Dichloro-3-(3,5-dichlorophenyl)cyclopropane-1-carboxamido)-2-fluoro-N-methyl-N-phenylbenzamide] | 50 to 100% | 50 to 100% | A (80-100)
11 | CN(C(=O)c1cc(NC(=O)[C@H]2[C@H](c3ccc(Cl)c(Cl)c3)C2(Cl)Cl)ccc1F)c1ccccc1 (relative stereo) [F67, trans-5-(2,2-Dichloro-3-(3,4-dichlorophenyl)cyclopropane-1-carboxamido)-2-fluoro-N-methyl-N-phenylbenzamide] | 50 to 100% | 50 to 100% | B (More than 0-Less than 80)
12 | CN(C(=O)c1cc(NC(=O)[C@H]2[C@H](c3cc(Cl)c(Cl)c(Cl)c3)C2(Cl)Cl)ccc1F)c1ccccc1 (relative stereo) [F68, trans-5-(2,2-Dichloro-3-(3,4,5-trichlorophenyl)cyclopropane-1-carboxamido)-2-fluoro-N-methyl-N-phenylbenzamide] | 50 to 100% | 50 to 100% | B (More than 0-Less than 80)
13 | CN(C(=O)c1cccc(NC(=O)[C@H]2[C@H](c3cc(Cl)cc(Cl)c3)C2(Cl)Cl)c1F)c1ccccc1 (relative stereo) [F69, trans-3-(2,2-Dichloro-3-(3,5-dichlorophenyl)cyclopropane-1-carboxamido)-2-fluoro-N-methyl-N-phenylbenzamide] | 50 to 100% | 50 to 100% | B (More than 0-Less than 80)
14 | CN(C(=O)c1cccc(NC(=O)[C@H]2[C@H](c3ccc(Cl)c(Cl)c3)C2(Cl)Cl)c1F)c1ccccc1 (relative stereo) [F70, trans-3-(2,2-Dichloro-3-(3,4-dichlorophenyl)cyclopropane-1-carboxamido)-2-fluoro-N-methyl-N-phenylbenzamide] | 50 to 100% | 50 to 100% | A (80-100)
15 | CN(C(=O)c1cccc(NC(=O)[C@H]2[C@H](c3cc(Cl)c(Cl)c(Cl)c3)C2(Cl)Cl)c1F)c1ccccc1 (relative stereo) [F71, trans-3-(2,2-Dichloro-3-(3,4,5-trichlorophenyl)cyclopropane-1-carboxamido)-2-fluoro-N-methyl-N-phenylbenzamide] | 50 to 100% | 50 to 100% | B (More than 0-Less than 80)
16 | CN(C(=O)c1cc(NC(=O)[C@H]2[C@H](c3cc(Cl)c(Cl)cc3Cl)C2(Cl)Cl)ccc1Cl)c1ccc(F)cc1 (relative stereo) [F74, trans-2-Chloro-5-(2,2-dichloro-3-(2,4,5-trichlorophenyl)cyclopropane-1-carboxamido)-N-(4-fluorophenyl)-N-methylbenzamide] | 50 to 100% | 50 to 100% | B (More than 0-Less than 80)
17 | O=C(Nc1ccc(F)cc1F)c1cc(NC(=O)[C@H]2[C@H](c3cc(Cl)c(Cl)c(Cl)c3)C2(Cl)Cl)ccc1F (relative stereo) [F75, trans-5-(2,2-Dichloro-3-(3,4,5-trichlorophenyl)cyclopropane-1-carboxamido)-N-(2,4-difluorophenyl)-2-fluorobenzamide] | 50 to 100% | 50 to 100% | A (80-100)
18 | O=C(Nc1ccc(F)cc1)c1cc(NC(=O)[C@H]2[C@H](c3ccc(C(F)(F)F)cc3)C2(Cl)Cl)ccc1Cl (relative stereo) [F81, trans-2-Chloro-5-(2,2-dichloro-3-(4-(trifluoromethyl)phenyl)cyclopropane-1-carboxamido)-N-(4-fluorophenyl)benzamide] | 50 to 100% | 50 to 100% | A (80-100)
19 | CN(C(=O)c1cc(NC(=O)[C@H]2[C@H](c3ccc(C(F)(F)F)cc3)C2(Cl)Cl)ccc1Cl)c1ccc(F)cc1 (relative stereo) [F82, trans-2-Chloro-5-(2,2-dichloro-3-(4-(trifluoromethyl)phenyl)cyclopropane-1-carboxamido)-N-(4-fluorophenyl)-N-methylbenzamide] | 50 to 100% | 50 to 100% | B (More than 0-Less than 80)

Reference: patent US10219516B2, “Molecules having pesticidal utility, and intermediates, compositions, and processes, related thereto” (priority 2015, dated 2019)
